# Reference: ChEMBL document CHEMBL4382229, “Benzofuran derivatives and their anti-tubercular, anti-bacterial activities” (Eur J Med Chem, 2019)
# What was measured:
# Format in all cases: functional
# Bacillus subtilis [1] = test: Antibacterial activity against Bacillus subtilis MTCC 1134 after 24 hrs by broth dilution method; details: MTCC 1134, 24 h
# Escherichia coli [2] = test: Antibacterial activity against Escherichia coli MTCC 1559 after 24 hrs by broth dilution method; details: MTCC 1559, 24 h
# Pseudomonas aeruginosa [3] = test: Antibacterial activity against Pseudomonas aeruginosa MTCC 1034 after 24 hrs by broth dilution method; details: MTCC 1034, 24 h
# Bacillus subtilis [4] = test: Antibacterial activity against Bacillus subtilis NCIM 2439 assessed as zone of inhibition at 1 ug/ml after 24 hrs by agar diffusion method; details: NCIM 2439, 24 h, read-out: IZ
# Staphylococcus aureus [5] = test: Antibacterial activity against Staphylococcus aureus NCIM 2079 assessed as zone of inhibition at 1 ug/ml after 24 hrs by agar diffusion method; details: NCIM 2079, 24 h, read-out: IZ
# Escherichia coli [6] = test: Antibacterial activity against Escherichia coli NCIM 2064 assessed as zone of inhibition at 1 ug/ml after 24 hrs by agar diffusion method; details: NCIM 2064, 24 h, read-out: IZ
# Pseudomonas aeruginosa [7] = test: Antibacterial activity against Pseudomonas aeruginosa NCIB 8650 assessed as zone of inhibition at 1 ug/ml after 24 hrs by agar diffusion method; details: NCIB 8650, 24 h, read-out: IZ
# Staphylococcus aureus [8] = test: Antibacterial activity against Staphylococcus aureus assessed as zone of inhibition at 1 mg/ml after 32 hrs by agar-well diffusion method; details: read-out: IZ
# Klebsiella pneumoniae = test: Antibacterial activity against Klebsiella pneumoniae assessed as zone of inhibition at 1 mg/ml after 32 hrs by agar-well diffusion method; details: read-out: IZ
# Pseudomonas aeruginosa [9] = test: Antibacterial activity against Pseudomonas aeruginosa assessed as zone of inhibition at 1 mg/ml after 32 hrs by agar-well diffusion method; details: read-out: IZ
# Escherichia coli [10] = test: Antibacterial activity against Escherichia coli assessed as zone of inhibition at 1 mg/ml after 32 hrs by agar-well diffusion method; details: read-out: IZ
# Escherichia coli [11] = test: Antibacterial activity against Escherichia coli by broth dilution method
# Pseudomonas aeruginosa [12] = test: Antibacterial activity against Pseudomonas aeruginosa by broth dilution method
Structure (SMILES),zone of inhibition at 1 µg/mL (Bacillus subtilis [4]) [mm],zone of inhibition at 1 µg/mL (Staphylococcus aureus [5]) [mm],zone of inhibition at 1 µg/mL (Escherichia coli [6]) [mm],zone of inhibition at 1 µg/mL (Pseudomonas aeruginosa [7]) [mm],also measured
Cc1ccc(-c2cc(-c3cc4cc(Br)ccc4o3)nc(S)n2)s1,–,–,–,–,MIC (Bacillus subtilis [1]): 4.32 to 18.4 µg/mL; MIC (Escherichia coli [2]): 4.32 to 18.4 µg/mL; MIC (Pseudomonas aeruginosa [3]): 4.32 to 18.4 µg/mL
COC(=O)c1cc(-c2cc3ccccc3o2)n(C(N)=O)n1,9 to 30,9 to 30,9 to 30,9 to 30,–
Cc1c(-c2cc(C(=O)NN)nn2-c2ccccc2)oc2c(Cl)cc(Cl)cc12,9 to 30,9 to 30,9 to 30,9 to 30,–
Cc1ccc(-c2cc(-c3cc4ccccc4o3)nc(S)n2)s1,–,–,–,–,MIC (Bacillus subtilis [1]): 4.32 to 18.4 µg/mL; MIC (Escherichia coli [2]): 4.32 to 18.4 µg/mL; MIC (Pseudomonas aeruginosa [3]): 4.32 to 18.4 µg/mL
Cc1ccc(-c2csc3nc(-c4cc5ccccc5o4)cn23)cc1,–,–,–,–,zone of inhibition at 1000 µg/mL (Staphylococcus aureus [8]): 6 to 23 mm; zone of inhibition at 1000 µg/mL (Klebsiella pneumoniae): 6 to 23 mm; zone of inhibition at 1000 µg/mL (Pseudomonas aeruginosa [9]): 6 to 23 mm; zone of inhibition at 1000 µg/mL (Escherichia coli [10]): 6 to 23 mm
COC(=O)c1cc(-c2oc3ccc(Cl)cc3c2C)n(C(N)=O)n1,9 to 30,9 to 30,9 to 30,9 to 30,–
Sc1nc(-c2cc3ccccc3o2)cc(-c2cccs2)n1,–,–,–,–,MIC (Bacillus subtilis [1]): 4.32 to 18.4 µg/mL; MIC (Escherichia coli [2]): 4.32 to 18.4 µg/mL; MIC (Pseudomonas aeruginosa [3]): 4.32 to 18.4 µg/mL
NNC(=O)c1cc(-c2cc3ccccc3o2)n(-c2ccccc2)n1,9 to 30,9 to 30,9 to 30,9 to 30,–
O=c1oc2ccc(Br)cc2cc1-c1coc2ccc3ccccc3c12,–,–,–,–,MIC (Escherichia coli [11]): 6.25 to 100 µg/mL; MIC (Pseudomonas aeruginosa [12]): 6.25 to 100 µg/mL
COC(=O)c1cc(-c2oc3c(Cl)cc(Cl)cc3c2C)[nH]n1,19 to 30,19 to 30,19 to 30,19 to 30,–
COC(=O)c1cc(-c2oc3c(Cl)cc(Cl)cc3c2C)n(-c2ccccc2)n1,9 to 30,9 to 30,9 to 30,9 to 30,–
Cc1ccc(-c2csc3nc(-c4cc5cc(Br)ccc5o4)cn23)cc1,–,–,–,–,zone of inhibition at 1000 µg/mL (Staphylococcus aureus [8]): 6 to 23 mm; zone of inhibition at 1000 µg/mL (Klebsiella pneumoniae): 6 to 23 mm; zone of inhibition at 1000 µg/mL (Pseudomonas aeruginosa [9]): 6 to 23 mm; zone of inhibition at 1000 µg/mL (Escherichia coli [10]): 6 to 23 mm
COC(=O)c1cc(-c2cc3cc(Br)ccc3o2)n(C(N)=O)n1,9 to 30,9 to 30,9 to 30,9 to 30,–
COC(=O)c1cc(-c2oc3ccc(Cl)cc3c2C)[nH]n1,9 to 30,9 to 30,9 to 30,9 to 30,–
O=c1oc2ccccc2cc1-c1coc2ccc3ccccc3c12,–,–,–,–,MIC (Escherichia coli [11]): 6.25 to 100 µg/mL; MIC (Pseudomonas aeruginosa [12]): 6.25 to 100 µg/mL
Cc1c(-c2cc(C(=O)NN)nn2-c2ccccc2)oc2ccc(Cl)cc12,9 to 30,9 to 30,9 to 30,9 to 30,–
COC(=O)c1cc(-c2cc3ccccc3o2)[nH]n1,9 to 30,9 to 30,9 to 30,9 to 30,–
Cc1ccc(-c2cc(-c3cc4cc(Br)ccc4o3)nc(N)n2)s1,–,–,–,–,MIC (Bacillus subtilis [1]): 4.32 to 18.4 µg/mL; MIC (Escherichia coli [2]): 4.32 to 18.4 µg/mL; MIC (Pseudomonas aeruginosa [3]): 4.32 to 18.4 µg/mL
Fc1ccc(-c2csc3nc(-c4cc5ccccc5o4)cn23)cc1,–,–,–,–,zone of inhibition at 1000 µg/mL (Staphylococcus aureus [8]): 6 to 23 mm; zone of inhibition at 1000 µg/mL (Klebsiella pneumoniae): 6 to 23 mm; zone of inhibition at 1000 µg/mL (Pseudomonas aeruginosa [9]): 6 to 23 mm; zone of inhibition at 1000 µg/mL (Escherichia coli [10]): 6 to 23 mm
Nc1nc(-c2cc3cc(Br)ccc3o2)cc(-c2cccs2)n1,–,–,–,–,MIC (Bacillus subtilis [1]): 4.32 to 18.4 µg/mL; MIC (Escherichia coli [2]): 4.32 to 18.4 µg/mL; MIC (Pseudomonas aeruginosa [3]): 4.32 to 18.4 µg/mL
COC(=O)c1cc(-c2oc3ccc(Cl)cc3c2C)n(-c2ccccc2)n1,9 to 30,9 to 30,9 to 30,9 to 30,–
O=c1oc2ccc(Br)cc2cc1-c1coc2c1ccc1ccccc12,–,–,–,–,MIC (Escherichia coli [11]): 6.25 to 100 µg/mL; MIC (Pseudomonas aeruginosa [12]): 6.25 to 100 µg/mL
Oc1nc(-c2cc3ccccc3o2)cc(-c2cccs2)n1,–,–,–,–,MIC (Bacillus subtilis [1]): 4.32 to 18.4 µg/mL; MIC (Escherichia coli [2]): 4.32 to 18.4 µg/mL; MIC (Pseudomonas aeruginosa [3]): 4.32 to 18.4 µg/mL
NNC(=O)c1cc(-c2cc3cc(Br)ccc3o2)n(-c2ccccc2)n1,9 to 30,9 to 30,9 to 30,9 to 30,–
COc1ccc2occ(-c3cc4cc(Br)ccc4oc3=O)c2c1,–,–,–,–,MIC (Escherichia coli [11]): 6.25 to 100 µg/mL; MIC (Pseudomonas aeruginosa [12]): 6.25 to 100 µg/mL
COC(=O)c1cc(-c2cc3ccccc3o2)n(-c2ccccc2)n1,9 to 30,9 to 30,9 to 30,9 to 30,–
